Data set [1] is described as follows: Biodistribution in human eyes removed from deceased donors. It counts as in vitro ADME. Conditions: human eye, 10% (w/v) solution, then 1 h incubation. The method, then:
Compound 6 3% (formulated in polyethylene glycol 155; Tween 80% 1%; Kolliphor EL 10%, made to 100% with normal saline; pH 7.2) was injected iv as a single dose of 30 mg/kg. Its retina levels were 4.9 μM and 1 μM at 1 h and 2 h, respectively (the corresponding sclera levels were similar, 3.2 μM and 2.0 μM). When compound 6 was given ip (in corn oil) as a single dose of 100 mg/kg its retina levels became detectable at 3 h (3.2 μM) and remained at 2.8 μM at 4 h and 6 h. Similarly, after its single topical administration, compound 6 3% (formulated in vitamin E TPGS 16%, mannitol 3.2% boric acid 1.2% and polyquad 0.005%, pH 7.2) produced retinal levels of 2.1 μM at 4 h. The biodistribution of compound 2 in human eyes that were recently removed from deceased donors and kept on ice until used within hours was also evaluated. In this study, compound 2 was dissolved in pure water, its pH was adjusted to 4.8±0.1 and its osmolarity to 290 mOsm. The final concentration of compound 2 was 10% (w/v).
The anterior surface of each was brought into contact with the above solution of compound 2 at 37° C.; the solution level was about 3 mm above the cornea edge. After 1 minute or 10 minutes the eyes were rinsed thoroughly with PBS, incubated for 1 h, and dissected to harvest the retina, choroid, aqueous humor, ciliary body, iris and cornea, which ere assayed by HPLC. As shown in the below table, compound 2 did reach the posterior segment of the eye.

In data set [2] the test system is oxygen-induced retinopathy. In words: Mouse model of oxygen-induced retinopathy. The format is in vivo, C57BL/6 mice. Conditions: 10% w/v eye drops 5 times daily, P12 to P17. The method, then: C57BL/6 mice were reared in 75±2% oxygen air starting on postnatal day 7 (P7) and moved into room air on P12, when they were injected intravitreally with 1 μl of 1% compound 6 solution or vehicle. On P17, the pups were euthanized, both eyes were enucleated and fixed with 4% paraformaldehyde (PFA). Following several intermediate steps, the retina was existed and fixed further with 4% PFA overnight. After appropriate washings, the retina was incubated with 10 μg/ml of FITC-conjugated anti-lectin antibody overnight and retina flat-mounts were prepared on glass slides and evaluated by fluorescence microscopy. The areas of the avascular, neovascular and whole retina were determined using ImageJ software.
In another study, the same mouse model of oxygen-induced retinopathy described above was used. In this study, mice were treated daily with an aqueous solution of compound 2 (pH=4.6, osmolarity=282 mOsm; concentration=10% w/v) from postnatal day 12 to day 17. Compound 2 was administered as one eye drop per eye every 2 hours during the day time for a total of 5 administrations daily. At the end of the study, mice were euthanized and their retinas dissected and studied by immunofluorescence using an antibody against lectin I, isolectin B4 (Vector Laboratories) and evaluated as above.

The next data set relates to SKOV-3 ovarian cancer. In words: 24 hr growth inhibition of cell line. The conditions noted are these: Homo sapiens, SK-OV-3, 24 h. The format is cell-based. The procedure:
(§1) The therapeutic efficacy of compounds 2, 5, and 6 was assessed in human and murine cell lines of varied tissue origin, and their 24 hr 50% inhibitory concentration was determined by following standard methodologies. Typical results are shown in the Table 5, indicating a broad anticancer effect.
Ovarian cancer cells were studied in greater detail using the following ovarian cancer cell lines: SKOV-3, OVCAR3, A2780 (and two cell lines derived from it, A2870cis that is resistant to cisplatin, and A2870ADR that is resistant to doxorubicin (Adriamycin)), and HEY (sensitive to paclitaxel (Taxol), and its derivative HEY-T30 that is Taxol-resistant). […]

The nature of data set [3]: Ocular pharmacokinetics and biodistribution after eye drops. It counts as in vivo, New Zealand rabbits. The arrangement: unit not given here. Conditions: rabbit, 20% eye drops. The method, then:
The pharmacokinetics and biodistribution of compounds 1, 2, and 5 in the eye of rabbits were determined. Each of these compounds was dissolved in phosphate buffered saline (PBS) and used as eye drops. The eye drops were sterilized before application to rabbits by filtration through a 0.2 μm membrane. […] The eyes were harvested and eye tissues and the lacrimal glands were dissected, homogenized and the test compounds were extracted by acetonitrile and analyzed by HPLC, as described under Compound Synthesis described herein. Compounds 1 and 2 were detected at 328 nm, and compound 5 at 260 nm. […] All three compounds can unexpectedly, readily, and rapidly reach the posterior chamber of the eye.

The test system of the next data set is A549 lung cancer. Briefly: 24 hr growth inhibition of cell line. It counts as cell-based. The conditions noted are these: Homo sapiens. The procedure: as §1
For another data set, the system named is HCT116 colon cancer. Briefly: 24 hr growth inhibition of cell line. The format is cell-based. Conditions: Homo sapiens, HCT-116, 24 h. The procedure: as §1
In another data set the test system is RAW264 murine macrophage. In words: 24 hr growth inhibition of cell line. Conditions: Mus musculus, RAW264.7, 24 h. The format is cell-based. The procedure: as §1
A further data set has as its system AGS gastric cancer. Briefly: 24 hr growth inhibition of cell line. The format is cell-based. Conditions: Homo sapiens. The method, then:
as §1

For data set [4], the system named is Ras palmitoylation in A2780 and A2780cis ovarian cancer cells. Briefly: Ras palmitoylation (resin capture, immunoblot). The format is cell-based, human. The procedure: FIGS. 18A-18B illustrate the effect of compounds 5 and 6 on K-Ras. FIG. 18A: Compound 6 suppressed of K-Ras activation. Cells with mutant K-Ras were treated with compound 6 1.5×IC50 for the respective time periods. K-Ras activity was determined by Ras pull-down (Thermo Scientific; following vendor instructions). K-Ras activation is suppressed 37% at 1 hr and 88% at 2 hrs compared to respective controls. FIG. 18B: Compound 5 suppressed the palmitoylation of Ras in A2780 and A2780cis (resistant to cisplatin) ovarian cancer cells. Palmitoylation is detected by removing S-palmitate groups from proteins, creating new free thiols (where the palmitic acid group used to be) and capturing the previously S-palmitoylated proteins on a resin, using a commercial kit (Badrilla, Leeds, UK). Ras was detected in the eluate by immunoblot.
This effect may be particularly useful in types of cancer characterized by K-Ras mutation such as, for example, pancreatic, lung and ovarian cancer. FIG. 18A illustrates the inhibition of K-Ras activation by compound 6. […] This property of compound 5 is not shared for example by compound 6 or phosphosulindac.
On the technique in general: A western blot detects proteins with antibodies after separation by electrophoresis.

The subject of the next data set is A2780 xenografts. Briefly: Subcutaneous xenografts in nude mice, platinum sensitive. The format is in vivo. The conditions noted are these: compound 5 15 mg/kg/day six days a week ip; cis-platinum 5.5 mg/kg one time a week ip. The procedure: (§2) To determine whether compound 5 is efficacious against chemotherapy-resistant ovarian cancer, three pairs of sensitive and resistant human ovarian cancer cell lines were grown as subcutaneous xenografts in nude mice and treated as summarized in FIG. 10. These cell lines were: A2780, sensitive to both cis-platinum and Adriamycin (doxorubicin); A2780cis, resistant to cis-platinum; A2780ADR, resistant to Adriamycin: HEY, sensitive to Taxol; HEY-T30, resistant to Taxol. The treatments administered were: vehicle control; compound 5, 15 mg/kg/day six days a week, ip; cis-platinum 5.5 mg/kg, one time a week ip; Adriamycin 3 mg/kg twice a week ip; and Taxol 20 mg/kg twice a week ip.

For a further data set, the system named is A2780cis xenografts. In words: Subcutaneous xenografts in nude mice, cisplatin resistant. Conditions: compound 5 15 mg/kg/day six days a week ip; cis-platinum 5.5 mg/kg one time a week ip. It counts as in vivo. The procedure:
Compound 6 was also efficacious against chemotherapy-resistant ovarian cancer. […] The effect of compound 6 in cisplatin resistant (A2780cis) and doxorubicin (Adriamycin) resistant (A2780ADR) tumors was studied. Briefly, each of these cell lines was subcutaneously inoculated into athymic nude mice and when the tumor size reached 100-200 mm^3, compound 6 150 mg/kg/day or its vehicle were given i.p. After 11 days of treatment, for the cisplatin-resistant tumors the tumor volume of the vehicle group was 2388±127 mm^3 and for compound 6 group 1032±108 mm^3 (mean±SEM; P<0.02); while for the doxorubicin-resistant tumors these values were: vehicle group=1369±337 mm^3 and compound 6 group=396±182 mm^3 (P<0.02).
as §2

Another data set concerns HEY-T30 xenografts. Briefly: Synergy with cyclophosphamide, Taxol resistant subcutaneous xenografts. The format is in vivo, nude mice. The conditions noted are these: day 21; compound 5 10 mg/kg/day six days a week ip; cyclophosphamide 10 mg/kg six days a week orally; or both.

Each structure is given as a SMILES string.

As usually defined, the IC50 is the concentration that gives 50% inhibition.

Regarding `CCOP(=O)(NCCN1CCN(C(=O)CC2=C(C)/C(=C/c3ccc([S+](C)[O-])cc3)c3ccc(F)cc32)CC1)OCC` (stereo not drawn) [Compound 2], in data set [1] (1 minute exposure), the “level in aqueous humor” value was 1.0 µM, the level in choroid came out at 425.9 µM, the “level in ciliary body” value came to 124.6 µM and the level in cornea came to 166.3 µM. Also, in [1] (1 minute exposure), the level in iris stood at 43.1 µM and the level in retina came out at 12.6 µM. Also, in data set [1] (10 minutes exposure), the “level in aqueous humor” value is 5.3 µM, the level in choroid was determined as 273.5 µM, the “level in ciliary body” value is 206.9 µM and the level in cornea turned out to be 512.6 µM. In [1] (10 minutes exposure), this molecule had a level in iris of 10.3 µM and a level in retina of 46.6 µM. The “avascular area of the retina, percentage of the entire retina surface area (mean±SEM)” value in data set [2] (vehicle 16.8±1.1) is listed as 5.8±0.8%. For the same molecule, in data set [2] (vehicle 20.7±3.7), the “neovascular area of the retina, percentage of the entire retina surface area (mean±SEM)” value was determined as 9.9±2.2%. The same molecule displayed an IC50 with SKOV-3 ovarian cancer of 480 µM. In [3] (2 hr), the “Drug level in Choroid” value worked out at 5.3, the “Drug level in Conjunctiva” value is on record as 16.1, the “Drug level in Cornea” value came to 106.1 and the “Drug level in Iris” value was 9.9. In [3] (2 hr), the “Drug level in Lens” value was 0.3, the “Drug level in Retina” value is listed as 4.1, the “Drug level in Sclera” value is 50.7 and the “Drug level in Vitreous” value was 1.2. In addition, in data set [3] (3 hr), the “Drug level in Choroid” value turned out to be 6.4, the “Drug level in Conjunctiva” value is 13.5, the “Drug level in Cornea” value is recorded as 46.0 and the “Drug level in Iris” value is 9.8. Also, in data set [3] (3 hr), the “Drug level in Lens” value stood at 4.0, the “Drug level in Retina” value was found to be 1.7 and the “Drug level in Sclera” value stood at 22.4. Besides, the IC50 with A549 lung cancer worked out at 400 µM. The molecule also yielded an IC50 in the data set with HCT116 colon cancer of 460 µM. For the same molecule, it took 160 µM to reach half-maximal inhibition with RAW264 murine macrophage (IC50). The IC50 with AGS gastric cancer came to 306 µM.
As for `CCOP(=O)(OCC)OCCCCOC(=O)CC1=C(C)/C(=C/c2ccc([S+](C)[O-])cc2)c2ccc(F)cc21` (stereo not drawn) [phosphosulindac, reference compound], the “suppression of palmitoylation of Ras” value in data set [4] is recorded as “not shared”.
With `CC1=C(CC(=O)N2CCN(CCNS(C)(=O)=O)CC2)c2cc(F)ccc2/C1=C\c1ccc([S+](C)[O-])cc1` (stereo not drawn) [Compound 1], in data set [3] (1 hr), the “Drug level in Choroid” value turned out to be 4.1, the “Drug level in Conjunctiva” value is 71.6, the “Drug level in Cornea” value was 61.8 and the “Drug level in Iris” value is 6.9. Further, in data set [3] (1 hr), the “Drug level in Lens” value is given as 20.2, the “Drug level in Retina” value was found to be 7.5, the “Drug level in Sclera” value came out at 10.1 and the “Drug level in Vitreous” value stood at 0.9. In data set [3] (3 hr), the “Drug level in Choroid” value came to 2.1, the “Drug level in Conjunctiva” value amounted to 52.5, the “Drug level in Cornea” value is given as 16.2 and the “Drug level in Iris” value came out at 7.6. Further, in [3] (3 hr), the “Drug level in Lens” value amounted to 4.6, the “Drug level in Retina” value is given as 1.8, the “Drug level in Sclera” value came to 2.5 and the “Drug level in Vitreous” value is 0.5.
With `N.N.[Cl][Pt][Cl]` [cis-platinum, reference compound], the “growth of platinum-sensitive xenografts” value in the data set on A2780 xenografts is on record as “suppressed the growth”. For the same molecule, in the data set on A2780cis xenografts, the “growth of platinum-resistant xenografts” value is listed as “failed to significantly inhibit tumor growth”.
Regarding `O=P1(N(CCCl)CCCl)NCCCO1` (stereo not drawn) [cyclophosphamide, reference compound], the “inhibition of tumor growth compared to control” value in the data set with HEY-T30 xenografts came to 23%.

The record behind these values is patent US12599599B2, “Anti-inflammatory, anti-cancer, and anti-angiogenic compounds, pharmaceutical compositions, and methods of making and using thereof” (MEDICON PHARMACEUTICALS, INC., priority 2017, dated 2026).
